Patent EP4682145A1, “BENZOHETEROCYCLIC COMPOUND, AND PREPARATION METHOD THEREFOR AND USE THEREOF” (Cascade Pharmaceuticals, Inc., priority 2023, dated 2024)

Target: T1, human FFAR1 (GPR40) (Homo sapiens, UniProt O14842)
T1 construct: Flag; expressed in transfected cells; host or cells: HEK293T
Experiment: NFAT-RE-based reporter gene activity assay (Dual-Glo luciferase) for GPR40 agonistic activity in co-transfected HEK293T cells
Type: cell-based
Conditions: 4-hour treatment
Procedure, shortened: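 HEK293T cells co-transfected with human FFAR1, NFAT-RE firefly luciferase and TK-Renilla plasmids; 24 h later treated 4 h with 10 half-log compound dilutions from 1 µM. Firefly/Renilla ratio normalised to DMSO; EC50 from four-parameter fit.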

T1 sequence (O14842 whole entry): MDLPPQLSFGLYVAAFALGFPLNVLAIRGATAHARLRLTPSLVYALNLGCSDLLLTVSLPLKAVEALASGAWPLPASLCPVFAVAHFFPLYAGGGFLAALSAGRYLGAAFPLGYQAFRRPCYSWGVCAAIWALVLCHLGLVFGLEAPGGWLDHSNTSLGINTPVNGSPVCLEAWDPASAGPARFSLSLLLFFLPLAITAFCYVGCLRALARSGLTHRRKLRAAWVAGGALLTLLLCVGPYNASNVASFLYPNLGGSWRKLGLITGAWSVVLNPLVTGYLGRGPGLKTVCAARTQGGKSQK

COc1ccc(F)c(N2CCC(c3oc4cc([C@@H](CC(=O)O)C5CC5)ccc4c3-c3ccc(C(C)(C)C)cc3)CC2)c1 [Compound 169]
EC50: 100 to 500 nM
Efficacy (%) (class symbols): ††† (Efficacy (%) > 150)
